Experimental data as given in patent US11191742B2, “Methods of treating neurodegenerative disorders in a particular population” (ALZHEON, INC., priority 2015, dated 2021).

How the values were obtained:
[1] = tested on: APOE4 heterozygous patients with Alzheimer's disease; experiment: Phase 3 trials of tramiprosate, CDR-SB score, heterozygous APOE4+ patients; type: in vivo, human; details: Heterozygous APOE4+ patients ≤85 years
Experimental: (§1) The delta value in all of these tables is calculated by measuring the increase in score over baseline for each patient in a treatment group and obtaining the mean increase for such group and then subtracting that value from the mean increase in score over baseline for all patients in the placebo group. Thus, a positive delta value in these tables represents an improvement over the placebo group. Phase 3 human clinical trials of tramiprosate to treat Alzheimer's disease at doses of 100 mg BID and 150 mg BID for up to 78 weeks were run in both North America and Europe (1691 total patients enrolled). Placebos in both trials were treatment with donepezil either alone or in combination with memantine. ADAS-Cog scores and CDR-SB scores were obtained every 13 weeks for patients that remained in the trial. The patients were genotyped for APOE4 and the severity of their disease was measured using MMSE prior to the beginning of treatment. The data from both trials were merged for certain statistical analyses. […] We then performed additional subgroup analysis, subgrouping by APOE4 genotype/allele status (APOE4 heterozygous or APOE4 homozygous) and by disease severity (mild vs moderate) to determine if the number of c alleles and/or the severity of disease predicted a better outcome of tramiprosate therapy. […] In Table 4, *control treatment is donepezil either alone or in combination with memantine. Positive delta values quantitate the amount by which average increase in CDR-SB Score points above baseline for the control group exceeded the average increase in CDR-SB Score points above baseline for the treatment group.

[2] = tested on: APOE4+ patients with Alzheimer's disease; experiment: Phase 3 trials of tramiprosate, ADAS-Cog score, all APOE4+ patients; type: in vivo, human; details: for ADAS-Cog Score Change over Standard of Care (Δ improvement vs control): All APOE4+ patients ≤85 years
Experimental: as §1, with “Table 1,” for “Table 4,”, “in ADAS-Cog” for “in CDR-SB”

[3] = Mild (MMSE 20-26), 100 mg BID, 52 weeks
[4] = Mild (MMSE 20-26), 100 mg BID, 65 weeks
[5] = Mild (MMSE 20-26), 100 mg BID, 78 weeks
[6] = Mild (MMSE 20-26), 150 mg BID, 52 weeks
[7] = Mild (MMSE 20-26), 150 mg BID, 65 weeks
[8] = Mild (MMSE 20-26), 150 mg BID, 78 weeks
[9] = Mild-to-Moderate (MMSE 16-26), 100 mg BID, 52 weeks
[10] = Mild-to-Moderate (MMSE 16-26), 100 mg BID, 65 weeks
[11] = Mild-to-Moderate (MMSE 16-26), 100 mg BID, 78 weeks
[12] = Mild-to-Moderate (MMSE 16-26), 150 mg BID, 52 weeks
[13] = Mild-to-Moderate (MMSE 16-26), 150 mg BID, 65 weeks
[14] = Mild-to-Moderate (MMSE 16-26), 150 mg BID, 78 weeks
[15] = Moderate (MMSE 16-19), 100 mg BID, 52 weeks
[16] = Moderate (MMSE 16-19), 100 mg BID, 65 weeks
[17] = Moderate (MMSE 16-19), 100 mg BID, 78 weeks
[18] = Moderate (MMSE 16-19), 150 mg BID, 52 weeks
[19] = Moderate (MMSE 16-19), 150 mg BID, 65 weeks
[20] = Moderate (MMSE 16-19), 150 mg BID, 78 weeks

NCCCS(=O)(=O)O [Tramiprosate, 3-amino-1-propanesulfonic acid] was tested, and the “CDR-SB Score Change over Standard of Care (Δ improvement vs control)” value [1, 3] was 0.2 points, the “CDR-SB Score Change over Standard of Care (Δ improvement vs control)” value [1, 4] was 0.3 points and the “CDR-SB Score Change over Standard of Care (Δ improvement vs control)” value [1, 5] was 0.3 points. For the same compound, the “CDR-SB Score Change over Standard of Care (Δ improvement vs control)” value [1, 6] was 0.1 points, the “CDR-SB Score Change over Standard of Care (Δ improvement vs control)” value [1, 7] was −0.1 points and the “CDR-SB Score Change over Standard of Care (Δ improvement vs control)” value [1, 8] was 0 points. For the same compound, the “CDR-SB Score Change over Standard of Care (Δ improvement vs control)” value [1, 9] was 0.5 points, the “CDR-SB Score Change over Standard of Care (Δ improvement vs control)” value [1, 10] was 0.5 points and the “CDR-SB Score Change over Standard of Care (Δ improvement vs control)” value [1, 11] was 0.6 points. The “CDR-SB Score Change over Standard of Care (Δ improvement vs control)” value [1, 12] was 0.4 points, the “CDR-SB Score Change over Standard of Care (Δ improvement vs control)” value [1, 13] was 0.3 points and the “CDR-SB Score Change over Standard of Care (Δ improvement vs control)” value [1, 14] was 0.50 points. The “CDR-SB Score Change over Standard of Care (Δ improvement vs control)” value [1, 15] was 1.00 points, the “CDR-SB Score Change over Standard of Care (Δ improvement vs control)” value [1, 16] was 1.00 points and the “CDR-SB Score Change over Standard of Care (Δ improvement vs control)” value [1, 17] was 1.00 points. The “CDR-SB Score Change over Standard of Care (Δ improvement vs control)” value [1, 18] was 1.00 points, the “CDR-SB Score Change over Standard of Care (Δ improvement vs control)” value [1, 19] was 1.1 points and the “CDR-SB Score Change over Standard of Care (Δ improvement vs control)” value [1, 20] was 1.5 points. For the same compound, the “Effect on ADAS-Cog compared with the placebo” value ([2]; APOE4+ subgroup, both 100 mg and 150 mg treatment groups) was “statistically significant effect”, the “ADAS-Cog Score Change over Standard of Care (Δ improvement vs control)” value [2, 3] was 0.82 points and the “ADAS-Cog Score Change over Standard of Care (Δ improvement vs control)” value [2, 4] was 0.99 points. The “ADAS-Cog Score Change over Standard of Care (Δ improvement vs control)” value [2, 5] was 1.3 points, the “ADAS-Cog Score Change over Standard of Care (Δ improvement vs control)” value [2, 6] was 0.17 points and the “ADAS-Cog Score Change over Standard of Care (Δ improvement vs control)” value [2, 7] was 0.71 points. The “ADAS-Cog Score Change over Standard of Care (Δ improvement vs control)” value [2, 8] was 0.27 points, the “ADAS-Cog Score Change over Standard of Care (Δ improvement vs control)” value [2, 9] was 1.67 points and the “ADAS-Cog Score Change over Standard of Care (Δ improvement vs control)” value [2, 10] was 1.82 points. The “ADAS-Cog Score Change over Standard of Care (Δ improvement vs control)” value [2, 11] was 2.03 points, the “ADAS-Cog Score Change over Standard of Care (Δ improvement vs control)” value [2, 12] was 0.95 points and the “ADAS-Cog Score Change over Standard of Care (Δ improvement vs control)” value [2, 13] was 1.23 points. For the same compound, the “ADAS-Cog Score Change over Standard of Care (Δ improvement vs control)” value [2, 14] was 0.77 points, the “ADAS-Cog Score Change over Standard of Care (Δ improvement vs control)” value [2, 15] was 3.45 points and the “ADAS-Cog Score Change over Standard of Care (Δ improvement vs control)” value [2, 16] was 3.45 points. For the same compound, the “ADAS-Cog Score Change over Standard of Care (Δ improvement vs control)” value [2, 17] was 3.32 points, the “ADAS-Cog Score Change over Standard of Care (Δ improvement vs control)” value [2, 18] was 2.52 points and the “ADAS-Cog Score Change over Standard of Care (Δ improvement vs control)” value [2, 19] was 2.23 points. The “ADAS-Cog Score Change over Standard of Care (Δ improvement vs control)” value [2, 20] was 1.57 points.
